Results from US20100081679A1, “DIAMINOPYRIMIDINES AS FUNGICIDES” (Bayer CropScience AG, priority 2007, published 2010).
Marks after values point to notes of the source that are not given here.

Assay: logP determination via retention times, calibrated with unbranched alkan-2-ones
Assay type: physicochemical
Details: linear gradient 10% to 95% acetonitrile
[1] = HPLC on reversed-phase C18 column (EEC Directive 79/831 Annex V.A8), method *: 40° C., 0.1% aqueous formic acid and acetonitrile
[2] = HPLC on reversed-phase C18, method *: 40° C., mobile phase 0.1% aqueous formic acid and acetonitrile

SMILES | logP [1] | logP [2] | also measured
CC(=O)Nc1cccc(Nc2ncc(C(F)(F)F)c(NCC3CC3)n2)c1 [compound 204] | 1.9* | – | –
CC(C)(C)C(=O)Nc1cccc(Nc2ncc(C(F)(F)F)c(NCC3CC3)n2)c1 [compound 205] | 2.77* | – | –
CN(C)C(=O)c1ccc(Nc2ncc(C(F)(F)F)c(NCC3CC3)n2)cc1 [compound 206] | 2.13* | – | –
CC(C)(C)NC(=O)c1ccc(Nc2ncc(C(F)(F)F)c(NCC3CC3)n2)cc1 [compound 207] | 3.07* | – | –
CSc1cccc(Nc2ncc(C(F)(F)F)c(NCC3CC3)n2)c1 [compound 208] | 3.41* | – | –
O=S(=O)(c1cccc(Nc2ncc(C(F)(F)F)c(NCC3CC3)n2)c1)N1CCCCC1 [compound 209] | 3.81* | – | –
CC(C)(C)C(=O)Cc1ccc(Nc2ncc(C(F)(F)F)c(NCC3CC3)n2)cc1 [compound 210] | 3.41* | – | –
CC(=O)c1cccc(Nc2ncc(C(F)(F)F)c(NCC3CC3)n2)c1 [compound 211] | 2.77* | – | –
COc1cc(Nc2ncc(C(F)(F)F)c(NCC3CC3)n2)cc(OC)c1OC [compound 217] | 2.57* | – | –
CS(=O)(=O)Nc1cccc(Nc2ncc(Cl)c(NC3CC3)n2)c1 [compound 242] | 1.47* | – | –
CS(=O)(=O)Cc1cccc(Nc2ncc(Cl)c(NC3CC3)n2)c1 [compound 243] | 1.46* | – | –
CN(C)S(=O)(=O)Oc1cccc(Nc2ncc(Cl)c(NC3CC3)n2)c1 [compound 244] | 2.26* | – | –
O=S1(=O)Cc2ccc(Nc3ncc(Cl)c(NC4CC4)n3)cc2C1 [compound 245] | 1.51* | – | –
O=S(=O)(c1cccc(Nc2ncc(Cl)c(NC3CC3)n2)c1)N1CCCCC1 [compound 246] | 2.8* | – | –
CCOC(=O)Cc1ccc(Nc2ncc(Cl)c(NC3CC3)n2)cc1 [compound 247] | 1.99* | – | –
N#CCC(=O)c1ccc(Nc2ncc(Cl)c(NC3CC3)n2)cc1 [compound 248] | 2.09* | – | –
CC(=O)c1cc(Nc2ncc(Cl)c(NC3CC3)n2)ccc1Cl [compound 249] | 2.43* | – | –
CCC(=O)c1cc(Nc2ncc(Cl)c(NC3CC3)n2)ccc1O [compound 250] | 1.99* | – | –
Brc1cnc(Nc2ccc(-c3nccs3)cc2)nc1NC1CC1 [compound 251] | 2.49* | – | –
CS(=O)(=O)c1cccc(Nc2ncc(Cl)c(NC3CC3)n2)c1 [compound 252] | 1.63* | – | –
Clc1cnc(Nc2ccc(-c3nccs3)cc2)nc1NC1CC1 [compound 253] | 2.32* | – | –
CS(=O)(=O)c1cccc(Nc2ncc(Br)c(NC3CC3)n2)c1 [compound 254] | 1.76* | – | –

SMILES | logP [1] | logP [2] | also measured
O=C1CCCN1c1cccc(Nc2ncc(C(F)(F)F)c(NC3CC3)n2)c1 [compound 255] | 2.23* | – | –
COc1cc(Nc2ncc(Cl)c(NC3CC3)n2)ccc1Cl [compound 256] | 2.53* | – | –
CCC(=O)c1ccc(Nc2ncc(Cl)c(NC3CC3)n2)cc1 [compound 257] | 2.34* | – | –
COc1cc(Nc2ncc(Cl)c(NC3CC3)n2)ccc1F [compound 259] | 1.9* | – | –
O=S(=O)(Cc1cccc(Nc2ncc(Cl)c(NC3CC3)n2)c1)N1CCOCC1 [compound 261] | 1.62* | – | –
O=S(=O)(Cc1cccc(Nc2ncc(Cl)c(NC3CC3)n2)c1)N1CCCCC1 [compound 262] | 2.24* | – | –
CC(C)Sc1cccc(Nc2ncc(Cl)c(NC3CC3)n2)c1 [compound 264] | 3.18* | – | –
O=C1CCCN1c1cc(Nc2ncc(C(F)(F)F)c(NC3CC3)n2)ccc1F [compound 265] | 2.33* | – | –
CSc1cccc(Nc2ncc(C(F)(F)F)c(NC3CC3)n2)c1 [compound 266] | 3.29*; | – | logP (HPLC on reversed-phase C18 column (EEC Directive 79/831 Annex V.A8), method **: 43° C., 0.1% aqueous phosphoric acid and acetonitrile): 3.49**
CC1COC(=O)N1c1cccc(Nc2ncc(Cl)c(NC3CC3)n2)c1 (centres unmarked) [compound 267] | 1.57* | – | –
COCc1cccc(Nc2ncc(Cl)c(NC3CC3)n2)c1 [compound 268] | 1.67* | – | –
COCc1cccc(Nc2ncc(Br)c(NC3CC3)n2)c1 [compound 269] | 1.8* | – | –
COC(c1cccc(Nc2ncc(Cl)c(NC3CC3)n2)c1)C(F)(F)F (centres unmarked) [compound 270] | 2.69* | – | –
Nc1ccc(Nc2ncc(Cl)c(NC3CC3)n2)cc1 [compound 272] | – | 0.45*; | logP (HPLC on reversed-phase C18, method **: 43° C., mobile phase 0.1% aqueous phosphoric acid and acetonitrile): 0.48**
Cc1cccc(C)c1Nc1ncc(Cl)c(NC2CC2)n1 [compound 273] | – | 1.59* | –
Cc1cc(C)cc(Nc2ncc(Cl)c(NC3CC3)n2)c1 [compound 274] | – | 2.13* | –
Fc1ccccc1Nc1ncc(Cl)c(NC2CC2)n1 [compound 275] | – | 2.09* | –
FC(F)(F)c1ccccc1Nc1ncc(Cl)c(NC2CC2)n1 [compound 276] | – | 2.58* | –
FC(F)(F)c1ccc(Nc2ncc(Cl)c(NC3CC3)n2)cc1 [compound 277] | – | 3.14* | –
N#Cc1cccc(Nc2ncc(Cl)c(NC3CC3)n2)c1 [compound 278] | – | 2.13* | –
COc1ccc(Nc2ncc(Cl)c(NC3CC3)n2)cc1OC [compound 279] | – | 1.47* | –
COc1cc(Nc2ncc(Cl)c(NC3CC3)n2)ccc1NC(C)=O [compound 280] | – | 1.18* | –

SMILES | logP [1] | logP [2] | also measured
Clc1cnc(Nc2ccc(Br)cc2)nc1NC1CC1 [compound 281] | – | 2.55* | –
COc1ccccc1Nc1ncc(Cl)c(NC2CC2)n1 [compound 282] | – | 1.85* | –
COc1cccc(Nc2ncc(Cl)c(NC3CC3)n2)c1 [compound 283] | – | 1.8* | –
COc1ccc(Nc2ncc(Cl)c(NC3CC3)n2)cc1 [compound 284] | – | 1.47* | –
Clc1ccc(Nc2ncc(Cl)c(NC3CC3)n2)cc1 [compound 285] | – | 2.54* | –
Clc1cnc(Nc2ccc(-c3cscn3)cc2)nc1NC1CC1 [compound 286] | – | 1.9* | –
COC(=O)Cc1ccc(Nc2ncc(Cl)c(NC3CC3)n2)cc1 [compound 287] | – | 1.85* | –
FC(F)Oc1ccc(Nc2ncc(Cl)c(NC3CC3)n2)cc1 [compound 288] | – | 2.11* | –
FC1(F)Oc2ccc(Nc3ncc(Cl)c(NC4CC4)n3)cc2OC1(F)F [compound 289] | – | 3.76* | –
COC(=O)Cc1cccc(Nc2ncc(Cl)c(NC3CC3)n2)c1 [compound 290] | – | 1.73* | –
Clc1cc(Cl)cc(Nc2ncc(Cl)c(NC3CC3)n2)c1 [compound 291] | – | 4.04* | –
CCOC(=O)c1cccc(Nc2ncc(Cl)c(NC3CC3)n2)c1 [compound 292] | – | 2.26* | –
CCOc1cccc(Nc2ncc(Cl)c(NC3CC3)n2)c1 [compound 293] | – | 2.06* | –
Oc1ccc(Nc2ncc(Cl)c(NC3CC3)n2)c(F)c1 [compound 294] | – | 1.26* | –
Clc1cnc(Nc2ccc3c(c2)OCO3)nc1NC1CC1 [compound 295] | – | 1.59* | –
FC(F)(F)Oc1ccc(Nc2ncc(Cl)c(NC3CC3)n2)cc1Cl [compound 296] | – | 3.9* | –
Clc1cnc(Nc2cccc(-c3nccs3)c2)nc1NC1CC1 [compound 297] | – | 2.21* | –
O=C1CCCN1c1cc(Nc2ncc(Cl)c(NC3CC3)n2)c(Cl)cc1Cl [compound 298] | – | 2.59* | –
Clc1cnc(Nc2ccc(OC3CCCC3)cc2)nc1NC1CC1 [compound 299] | – | 2.48* | –
FC(F)(F)Oc1cccc(Nc2ncc(Cl)c(NC3CC3)n2)c1 [compound 300] | – | 3.18* | –
FC(F)(F)Oc1cccc(Nc2ncc(Br)c(NC3CC3)n2)c1 [compound 301] | – | 3.68* | –
CC(C)OC(=O)Nc1cccc(Nc2ncc(Cl)c(NC3CC3)n2)c1 [compound 302] | – | 1.99* | –
